Consider five compounds from patent publication US11530223B2, “Spiro-lactam NMDA receptor modulators and uses thereof” (Aptinyx Inc., priority 2016, dated 2022).

The subject of data set [1] is rats. Description: positive emotional learning (PEL) test, 50-kHz ultrasonic vocalizations. To be noted: rat, PO, one hour after administration. The class given is in vivo. The protocol:
Experiments were conducted as described in Burgdorf et al., “The effect of selective breeding for differential rates of 50-kHz ultrasonic vocalizations on emotional behavior in rats,” Devel. Psychobiol., 51:34-46 (2009). Rat 50-kHz ultrasonic vocalization (hedonic USVs) is a validated model for the study of positive affective state and is best elicited by rough-and-tumble play.
The PEL assay measures the acquisition of positive (hedonic) 50-kHz ultrasonic vocalizations (USVs) to a social stimulus, heterospecific rough and tumble play stimulation. Heterospecific rough-and-tumble play stimulation was administered by the experimenter's right hand. One hour after administration of test compound or vehicle negative control (0.5% sodium carboxymethyl cellulose in 0.9% sterile saline vehicle), animals received 3 min of heterospecific rough-and-tumble play that consisted of alternating 15 sec blocks of heterospecific play and 15 sec of no-stimulation. High frequency ultrasonic vocalizations (USVs) were recorded and analyzed by sonogram with Avasoft SASlab Pro (Germany) as previously described by Burgdorf et al., “Positive emotional learning is regulated in the medial prefrontal cortex by GluN2B-containing NMDA receptors,” Neuroscience, 192:515-523 (2011). Frequency modulated 50-kHz USVs that occurred during each of the no-stimulation periods were quantified to measure PEL. Animals were not habituated to play stimulation before testing. Positive emotional learning was measured during the conditioned stimulus (CS) trials preceding the tickle unconditioned stimulus (UCS) trials. Animals received 15 second trials consisting of 6 CS and 6 UCS trials each (3 min total).
The table below summarizes the findings. As each experiment includes its own vehicle group, an example (typical) vehicle score is shown. Max effect (mean number of 50 kHz USVs per 15 seconds) is reported as ^: <6.0; *: 6.0-7.6; **: 7.7-10; ***:10.1-20

Data set [2] deals with T1, NMDAR2A (Homo sapiens, UniProt Q12879).
T1 construct: expressed in transfected cells; host or cells: HEK cells (membrane extract)
T1 sequence (Q12879 23-1464, species assumed, other chains not shown): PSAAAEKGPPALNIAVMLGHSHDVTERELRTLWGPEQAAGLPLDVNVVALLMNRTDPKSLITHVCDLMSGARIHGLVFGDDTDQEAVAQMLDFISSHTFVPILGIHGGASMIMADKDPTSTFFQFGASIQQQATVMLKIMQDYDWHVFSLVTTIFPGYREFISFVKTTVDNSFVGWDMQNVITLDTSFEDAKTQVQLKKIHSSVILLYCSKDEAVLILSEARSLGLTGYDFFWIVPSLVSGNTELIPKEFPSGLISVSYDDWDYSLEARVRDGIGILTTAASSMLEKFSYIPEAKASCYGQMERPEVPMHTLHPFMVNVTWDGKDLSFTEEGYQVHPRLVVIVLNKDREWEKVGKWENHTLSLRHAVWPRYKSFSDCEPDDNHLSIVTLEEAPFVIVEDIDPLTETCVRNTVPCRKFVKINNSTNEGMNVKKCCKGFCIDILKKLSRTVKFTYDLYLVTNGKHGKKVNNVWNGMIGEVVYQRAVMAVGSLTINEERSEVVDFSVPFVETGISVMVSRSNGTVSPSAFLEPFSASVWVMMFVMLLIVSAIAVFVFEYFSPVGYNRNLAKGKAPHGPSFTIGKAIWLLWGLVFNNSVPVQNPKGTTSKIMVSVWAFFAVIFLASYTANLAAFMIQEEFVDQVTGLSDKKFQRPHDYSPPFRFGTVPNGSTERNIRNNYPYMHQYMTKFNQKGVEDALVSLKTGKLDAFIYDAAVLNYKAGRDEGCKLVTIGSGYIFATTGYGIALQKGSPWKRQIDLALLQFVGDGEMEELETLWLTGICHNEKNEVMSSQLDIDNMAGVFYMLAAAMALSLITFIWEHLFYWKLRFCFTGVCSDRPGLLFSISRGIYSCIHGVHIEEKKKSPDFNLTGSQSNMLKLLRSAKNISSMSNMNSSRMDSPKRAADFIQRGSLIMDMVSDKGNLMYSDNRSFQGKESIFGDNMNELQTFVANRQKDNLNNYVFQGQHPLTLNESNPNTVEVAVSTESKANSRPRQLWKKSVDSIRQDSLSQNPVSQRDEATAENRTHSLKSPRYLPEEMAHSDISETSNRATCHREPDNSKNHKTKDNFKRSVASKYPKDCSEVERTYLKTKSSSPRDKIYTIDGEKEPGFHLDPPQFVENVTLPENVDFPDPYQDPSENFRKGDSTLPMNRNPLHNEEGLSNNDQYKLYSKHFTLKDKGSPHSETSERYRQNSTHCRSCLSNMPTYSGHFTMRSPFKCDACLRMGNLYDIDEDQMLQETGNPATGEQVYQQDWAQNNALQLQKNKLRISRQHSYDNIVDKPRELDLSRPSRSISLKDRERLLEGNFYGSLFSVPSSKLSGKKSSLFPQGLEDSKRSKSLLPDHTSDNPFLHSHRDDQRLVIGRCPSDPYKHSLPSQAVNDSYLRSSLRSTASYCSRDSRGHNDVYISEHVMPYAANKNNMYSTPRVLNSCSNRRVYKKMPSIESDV
Description: [3H]MK-801 binding in NMDAR2A expressing HEK cell membranes. The class given is biochemical. Particulars: 50 μM glutamate; for Emax: read-out: A: % maximal [3H]MK-801 binding relative to 1 mM glycine; for EC50: read-out: B: log EC50 (converted). The protocol:
(§1) Assays were conducted as described by Moskal et al., “GLYX-13: a monoclonal antibody-derived peptide that acts as an N-methyl-D-aspartate receptor modulator,” Neuropharmacology, 49, 1077-87, 2005. These studies were designed to determine if the test compounds act to facilitate NMDAR activation in NMDAR2A, NMDAR2B, NMDAR2C or NMDAR2D expressing HEK cell membranes as measured by increases in [^3H]MK-801 binding.
(§2) In the assay, 300 μg of NMDAR expressing HEK cell membrane extract protein was preincubated for 15 minutes at 25° C. in the presence of saturating concentrations of glutamate (50 μM) and varying concentrations of test compound (1×10^−15M−1×10^−7M), or 1 mM glycine. Following the addition of 0.3 μCi of [^3H]MK-801 (22.5 Ci/mmol), reactions were again incubated for 15 minutes at 25° C. (nonequilibrium conditions). Bound and free [^3H]MK-801 were separated via rapid filtration using a Brandel apparatus.
(§3) In analyzing the data, the DPM (disintegrations per minute) of [^3H]MK-801 remaining on the filter were measured for each concentration of test compound or for 1 mM glycine. The DPM values for each concentration of a ligand (N=2) were averaged. The baseline value was determined from the best fit curve of the DPM values modeled using the GraphPad program and the log(agonist) vs. response (three parameters) algorithm was then subtracted from all points in the dataset. The % maximal [^3H]MK-801 binding was then calculated relative to that of 1 mM glycine: all baseline subtracted DPM values were divided by the average value for 1 mM glycine. The EC50 and % maximal activity were then obtained from the best fit curve of the % maximal [^3H]MK-801 binding data modelled using the GraphPad program and the log(agonist) vs. response (three parameters) algorithm.
(§4) The tables below summarize the results for the wild type […] NMDAR2A, NMDAR2B, NMDAR2C, and NMDAR2D, and whether the compound is not an agonist (−), is an agonist (+), or is a strong agonist (++), where column A is based on the % maximal [^3H]MK-801 binding relative to 1 mM glycine (−=0; <100%=+; and >100%=++); and column B is based on log EC50 values (0=−; ≥1×10^−9 M (e.g., −8)=+; and <1×10^−9 M (e.g., −10)=++).

Data set [3] addresses T2, NMDAR2B (Homo sapiens, UniProt Q13224).
T2 construct: expressed in transfected cells; host or cells: HEK cells (membrane extract)
Description: [3H]MK-801 binding in NMDAR2B expressing HEK cell membranes. The class given is biochemical. On the set-up: key to B: log EC50: 0=−; ≥1×10^−9 M (e.g., −8)=+; <1×10^−9 M (e.g., −10)=++. To be noted: 50 μM glutamate; for Emax: read-out: A: % maximal [3H]MK-801 binding relative to 1 mM glycine; for EC50: read-out: B: log EC50 (converted). The procedure: as §1, §2, §3, §4

Data set [4] in a line: oral pharmacokinetics (plasma, brain, CSF). The class given is in vivo. To be noted: Sprague Dawley rats, per os 10 mg/kg; for Tmax: normal saline (first four compounds: 5% NMP, 5% Solutol HS, 90% normal saline).
Description: Plasma, brain, and CSF samples were analyzed at various time points over a 24 hour period.
The target of data set [5] is T3, NMDAR2D (Homo sapiens, UniProt O15399).
T3 construct: expressed in transfected cells; host or cells: HEK cells (membrane extract)
T3 sequence (O15399 28-1336, species assumed, other chains not shown): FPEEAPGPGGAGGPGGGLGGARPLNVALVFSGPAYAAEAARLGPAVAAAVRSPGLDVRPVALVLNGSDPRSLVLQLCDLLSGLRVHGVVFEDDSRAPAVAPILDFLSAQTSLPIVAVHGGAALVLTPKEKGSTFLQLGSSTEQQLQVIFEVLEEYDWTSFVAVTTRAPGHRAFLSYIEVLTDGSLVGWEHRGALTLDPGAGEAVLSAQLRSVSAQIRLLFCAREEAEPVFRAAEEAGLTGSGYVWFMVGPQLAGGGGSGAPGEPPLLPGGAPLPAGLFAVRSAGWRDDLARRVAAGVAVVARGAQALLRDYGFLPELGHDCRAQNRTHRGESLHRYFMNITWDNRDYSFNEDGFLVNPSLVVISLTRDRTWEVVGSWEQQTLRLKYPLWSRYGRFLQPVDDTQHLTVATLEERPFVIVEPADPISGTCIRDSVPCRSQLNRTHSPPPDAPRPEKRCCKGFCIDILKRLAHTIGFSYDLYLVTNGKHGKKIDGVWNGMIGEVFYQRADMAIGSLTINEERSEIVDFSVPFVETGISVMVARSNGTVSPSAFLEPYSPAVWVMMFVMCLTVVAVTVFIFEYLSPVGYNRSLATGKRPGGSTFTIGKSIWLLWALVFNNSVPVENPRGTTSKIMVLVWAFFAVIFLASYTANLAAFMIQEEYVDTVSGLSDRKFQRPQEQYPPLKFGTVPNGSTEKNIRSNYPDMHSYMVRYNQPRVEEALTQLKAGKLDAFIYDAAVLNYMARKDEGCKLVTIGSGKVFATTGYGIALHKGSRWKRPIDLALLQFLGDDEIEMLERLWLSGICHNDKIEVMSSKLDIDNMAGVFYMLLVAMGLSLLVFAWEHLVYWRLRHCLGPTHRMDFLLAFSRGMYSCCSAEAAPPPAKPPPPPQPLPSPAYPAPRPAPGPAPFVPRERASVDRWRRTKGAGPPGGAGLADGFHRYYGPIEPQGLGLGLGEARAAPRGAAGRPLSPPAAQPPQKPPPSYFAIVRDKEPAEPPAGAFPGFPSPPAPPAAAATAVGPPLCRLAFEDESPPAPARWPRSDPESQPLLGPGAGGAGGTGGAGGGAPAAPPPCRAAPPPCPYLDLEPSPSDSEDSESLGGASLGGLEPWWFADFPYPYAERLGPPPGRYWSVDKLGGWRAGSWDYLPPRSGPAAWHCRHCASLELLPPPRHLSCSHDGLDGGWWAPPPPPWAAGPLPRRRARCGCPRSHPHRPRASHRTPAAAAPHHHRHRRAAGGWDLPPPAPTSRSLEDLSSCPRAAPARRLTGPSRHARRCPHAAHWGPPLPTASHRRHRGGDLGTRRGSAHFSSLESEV
Description: [3H]MK-801 binding in NMDAR2D expressing HEK cell membranes. The format is biochemical. On the set-up: key to B: log EC50: 0=−; ≥1×10^−9 M (e.g., −8)=+; <1×10^−9 M (e.g., −10)=++. Particulars: for A: % maximal [3H]MK-801 binding relative to 1 mM glycine: c3, taken as NMDAR2D. The protocol:
as §1, §2, §3, §4

Data set [6] can be described thus: IV pharmacokinetics. The class given is in vivo. To be noted: Sprague Dawley rats; for C0: normal saline (first four compounds: 5% NMP, 5% Solutol HS, 90% normal saline). The protocol: Sprague Dawley rats were dosed intravenously using a normal saline formulation containing 2 mg/kg of the compounds identified in the below table (except for the first four compounds that were delivered in 5% NMP, 5% Solutol® HS and 90% normal saline formulation). The table below summarizes the results of the IV pharmacokinetics.

In data set [7] the test system is Sprague Dawley rats. Kind of data set: Porsolt forced swim test. The class given is in vivo. Particulars: 0.1 mg/kg; for % reduction in float time: relative to vehicle group. The procedure: A non-clinical in vivo pharmacology study (Porsolt assay) was performed to measure antidepressant-like effects. A negative control (0.5% sodium carboxymethyl cellulose in 0.9% sterile saline vehicle) and a positive control (fluoxetine) are shown for comparison against test compound. The study allowed for the evaluation of the effects of each compound on the Porsolt forced swim test as assessed by the rats' response (reduced floating time) during a 5-minute swimming test.
Male 2-3 month old Sprague Dawley rats were used (Harlan, Indianapolis, Ind.). Rats were housed in Lucite cages with aspen wood chip bedding, maintained on a 12:12 light:dark cycle (lights on at 5 AM), and given ad libitum access to Purina lab chow (USA) and tap water throughout the study.
The Porsolt forced swim test adapted for use in rats was performed as described by Burgdorf et al., (The long-lasting antidepressant effects of rapastinel (GLYX-13) are associated with a metaplasticity process in the medial prefrontal cortex and hippocampus. Neuroscience 308:202-211, 2015). Animals were placed in a 46 cm tall×20 cm in diameter clear glass tube filled to 30 cm with tap water (23±1° C.) for 15 min on the first day (habituation) and 5 min on the subsequent test day. Positive control fluoxetine was dosed 3 times (24 h, 5 h and 1 h) prior to testing. Animals were tested 1 h or 24 h post-dosing with the test compounds or vehicle. Animals received a 15 min habituation session 1 day before the 5 min test. A subset of compounds tested at 1 h post-dosing were retested at 1 wk post-dosing in the same sets of animals. Water was changed after every other animal. Animals were videotaped, and floating time as defined as the minimal amount of effort required to keep the animals head above water was scored offline by a blinded experimenter with high inter-rater reliability (Pearson's r>0.9).
Each compound tested at dose level shown. Significance vs. vehicle group for each experiment is marked. […] A compound marked “No” was not statistically significant from vehicle. Data was averaged for test compound and vehicle groups (N approximately 8 per group) and the percent reduction in floating for group treated with test compound relative to group treated with vehicle is shown.

Where [8] appears, read: Sprague Dawley, rat, plasma, po, 10 mg/kg, read-out: Tmax.
The mark [9] stands for this setting: Sprague Dawley, rat, plasma, po, 10 mg/kg, plasma, read-out: Cmax.
Setting [10] is: Sprague Dawley, rat, in vivo, iv, 2 mg/kg.
The mark [11] stands for this setting: Sprague Dawley, rat, plasma, po, 10 mg/kg.

SMILES strings stand for the structures. Read-outs that look alike come from different tables or passages of the source.

T2 sequence (Q13224 27-1484, species assumed, other chains not shown): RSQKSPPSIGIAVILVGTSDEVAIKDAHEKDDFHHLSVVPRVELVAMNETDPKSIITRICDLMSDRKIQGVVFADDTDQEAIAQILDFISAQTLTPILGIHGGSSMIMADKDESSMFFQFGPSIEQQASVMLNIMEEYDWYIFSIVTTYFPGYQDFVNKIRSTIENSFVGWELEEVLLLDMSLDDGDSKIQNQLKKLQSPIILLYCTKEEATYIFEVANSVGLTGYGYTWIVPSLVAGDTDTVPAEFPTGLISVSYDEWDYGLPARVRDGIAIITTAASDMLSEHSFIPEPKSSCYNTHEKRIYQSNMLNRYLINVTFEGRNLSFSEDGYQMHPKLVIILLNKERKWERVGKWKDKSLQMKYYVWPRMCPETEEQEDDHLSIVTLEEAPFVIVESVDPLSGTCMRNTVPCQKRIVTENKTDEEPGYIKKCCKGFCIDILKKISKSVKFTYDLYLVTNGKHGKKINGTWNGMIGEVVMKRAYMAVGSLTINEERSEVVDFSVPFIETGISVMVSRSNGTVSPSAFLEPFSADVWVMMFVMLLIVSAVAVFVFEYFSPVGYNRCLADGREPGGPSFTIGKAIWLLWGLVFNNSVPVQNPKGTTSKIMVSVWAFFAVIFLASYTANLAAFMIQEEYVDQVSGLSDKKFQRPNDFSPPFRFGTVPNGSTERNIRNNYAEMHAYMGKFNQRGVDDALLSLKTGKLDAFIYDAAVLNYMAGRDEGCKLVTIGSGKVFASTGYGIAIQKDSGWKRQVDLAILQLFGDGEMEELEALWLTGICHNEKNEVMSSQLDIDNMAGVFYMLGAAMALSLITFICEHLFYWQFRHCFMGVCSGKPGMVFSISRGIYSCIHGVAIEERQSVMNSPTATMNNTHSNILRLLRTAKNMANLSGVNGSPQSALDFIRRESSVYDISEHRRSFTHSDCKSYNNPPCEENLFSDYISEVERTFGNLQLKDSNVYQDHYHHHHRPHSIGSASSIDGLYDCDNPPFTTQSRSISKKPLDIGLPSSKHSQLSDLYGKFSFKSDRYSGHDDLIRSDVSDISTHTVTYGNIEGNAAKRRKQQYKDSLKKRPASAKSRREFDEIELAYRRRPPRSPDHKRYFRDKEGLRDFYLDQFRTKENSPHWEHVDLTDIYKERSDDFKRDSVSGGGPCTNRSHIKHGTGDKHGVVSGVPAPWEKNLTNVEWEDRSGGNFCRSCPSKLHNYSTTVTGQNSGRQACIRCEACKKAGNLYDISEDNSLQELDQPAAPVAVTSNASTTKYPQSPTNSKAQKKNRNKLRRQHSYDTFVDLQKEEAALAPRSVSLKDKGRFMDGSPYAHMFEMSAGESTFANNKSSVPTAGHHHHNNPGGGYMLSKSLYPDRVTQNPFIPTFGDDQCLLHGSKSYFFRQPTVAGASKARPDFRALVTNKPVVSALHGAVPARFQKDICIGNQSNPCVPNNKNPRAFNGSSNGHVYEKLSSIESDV

In the case of `CC(C)(C)OC(=O)N1CCCC12CCNC2=O` (single isomer, unassigned) [RT-1, tert-butyl 6-oxo-1,7-diazaspiro[4.4]nonane-1-carboxylate], the “Max Effect (mean number of 50 kHz USVs per 15 seconds)” value in data set [1] (dose 0.1 mg/kg) was “** (**: 7.7-10)”. Further, in data set [2], the Emax was below 100% and the EC50 was below 1 nM. For the same compound, in data set [3], the Emax is below 100% and the EC50 is below 1 nM.

For the compound `O=C1NCCC12CCCN2` (single isomer, unassigned) [RW-1, 1,7-diazaspiro[4.4]nonan-6-one], the “Max Effect (mean number of 50 kHz USVs per 15 seconds)” value in data set [1] (dose 0.1 mg/kg) is listed as “** (**: 7.7-10)”. Further, in data set [2], the Emax was below 100% and the EC50 was at least 1 nM. Also, in data set [3], the Emax is below 100% and the EC50 was below 1 nM. In addition, in data set [4], the “CSF Cmax” value amounted to 853 ng/mL. The Tmax in data set [4] (setting [8]) came out at 1 h. Also, in data set [4] (setting [9]), the highest concentration (Cmax) is 4070 ng/mL.

`O=C1NCCC12CCCNC2` (stereo not drawn) [RB-1, 2,7-diazaspiro[4.5]decan-1-one]: in data set [1] (dose .001-1 mg/kg), the “Max Effect (mean number of 50 kHz USVs per 15 seconds)” value is recorded as “*** (***:10.1-20)”. Moreover, in data set [2], the Emax was below 100% and the EC50 was below 1 nM. In data set [3], the “B: log EC50” value is “−” and the Emax is above 100%. Besides, the “A: % maximal [3H]MK-801 binding relative to 1 mM glycine” value in data set [5] (second part of table (r25-r35)) is on record as “+ (<100%=+)”. Moreover, in data set [6] (intravenous 2 mg/kg), the T1/2 is 3.35 h. In data set [6] (setting [10]), this compound registered an AUC(0-t) of 1260 ng·h/mL and a clearance of 25.8 mL/min/kg. The C0 in data set [6] (Sprague Dawley, rat, in vivo, iv, 2 mg/kg, read-out: C0) stood at 2070 ng/mL. Further, the Vd in data set [6] (Sprague Dawley, rat, in vivo, iv, 2 mg/kg, read-out: Vss) stood at 2.79 L/kg. For the same compound, in data set [4], the “CSF Cmax” value turned out to be 27.4 ng/mL and the “Brain Cmax” value was 40.2 ng/mL. In data set [4] (setting [11]), this compound displayed an AUC(0-t) of 3290 ng·h/mL and a bioavailability of 52%. Also, the Tmax in data set [4] (setting [8]) came out at 1.17 h. Moreover, in data set [4] (setting [9]), the Cmax was 825 ng/mL.

For `O=C1NCCC12CCCNC2` (stereo not drawn) [RC-1, 2,7-diazaspiro[4.5]decan-1-one], the “Max Effect (mean number of 50 kHz USVs per 15 seconds)” value in data set [1] (dose .001-1 mg/kg) was “*** (***:10.1-20)”. Moreover, in data set [2], the “A: % maximal [3H]MK-801 binding relative to 1 mM glycine” value is listed as “+ (<100%=+)” and the EC50 was below 1 nM. For the same compound, in data set [3], the “A: % maximal [3H]MK-801 binding relative to 1 mM glycine” value is “++ (>100%=++)” and the EC50 was below 1 nM. In addition, the “B: log EC50” value in data set [5] (second part of table, c4, taken as NMDAR2D) is “−”. Besides, in data set [6] (intravenous 2 mg/kg), the AUClast stood at 1511.4 ng·h/mL, the Cl is on record as 21.81 mL/min/kg, the T1/2 stood at 1.36 h and the Vss is reported as 1.84 L/kg. The C0 in data set [6] (intravenous 2 mg/kg) is given as 2013.4 ng/mL. Also, in data set [4], the “% F” value turned out to be 49%, the AUClast turned out to be 3668.7 ng·h/mL, the “CSF Cmax” value stood at 20.8 ng/mL and the “Brain Cmax” value is given as 27.6 ng/mL. In data set [4], the Tmax is 1.67 h. Also, in data set [4] (plasma), the Cmax is listed as 990.2 ng/mL.

Take `O=C1NCCC12CCCCN2` (stereo not drawn) [RG-602]: the “A: % maximal [3H]MK-801 binding relative to 1 mM glycine” value in data set [2], in data set [3] and in data set [5] (second part of table (r25-r35)) was “+ (<100%=+)” each time. For the same compound, the EC50 in data set [2] is below 1 nM; in data set [3] it was below 1 nM; in data set [5] (second part of table (r25-r35), c4, taken as NMDAR2D, read-out: B: log EC50 (converted)), below 1 nM. The Significance vs. vehicle result in data set [7] (1 wk post-dose) is “Yes (statistically significant (p<=0.05) from vehicle at dose level shown)”; in data set [7] (1 h post-dose, floating time in 5 min test), “Yes (statistically significant (p<=0.05) from vehicle at dose level shown)”. Moreover, the “% reduction in float time” value in data set [7] (1 wk post-dose) stood at 55.5%; in data set [7] (1 h post-dose) it was 71.1%.
